{
  "source": "paper PMC9250534",
  "about": "“Synthesis and direct assay of large macrocycle diversities by combinatorial late-stage modification at picomole scale” (Nature Communications, 2022)",
  "target": "T1, thrombin (Homo sapiens, UniProt P00734)",
  "T1 construct": "consists of two polypeptide chains of 36 (light chain) and 259 amino acid",
  "assay": "Thrombin inhibition screen of crude macrocycle reactions (residual thrombin activity, fluorogenic substrate Z-Gly-Gly-Arg-AMC)",
  "format": "biochemical",
  "conditions": "10 µM macrocycle concentration; for percent residual thrombin activity: crude reactions, Library 1a-l, scaffold AA1-AA2-AA3 combined with 1-16 or '-'; for % thrombin activity, Original screen / % thrombin activity, Repeat screen: macrocycles containing acid 14, crude reaction; for % thrombin activity, Repeat screen: replicate reaction and screen",
  "protocol": "As a proof-of-concept, we screened the macrocycle library for inhibitors against thrombin, which is the central blood coagulation protease and an important therapeutic target. We conducted the screen for thrombin-inhibiting macrocycles in 384-well reaction plates. Briefly, each well contained a unique macrocycle (10 μM), 5 μL of thrombin (2 nM final conc.), and subsequently, 5 µL of a fluorogenic substrate to measure the residual thrombin activity and the extent of protease inhibition.\nThe assays were performed in 384-well plates using Tris buffer at pH 7.4 (100 mM Tris-Cl, 150 mM NaCl, 10 mM MgCl2, 1 mM CaCl2, 0.1% w/v BSA, 0.01% v/v Triton-X100, and 0.6% v/v DMSO) using thrombin at a final concentration of 2 nM and the fluorogenic substrate Z-Gly-Gly-Arg-AMC at a final concentration of 50 μM. Thrombin (5 μL, 6 nM) in the Tris-Cl buffer described above was added to each peptide using a BioTek MultiFlo microplate dispenser, and incubated for 10 min at room temperature. […] Data was collected and exported using the Tecan Infinite M200 Pro instrument software. […] For the negative controls (20 wells containing DMSO but no macrocycle), an average slope was calculated. The percent of thrombin inhibition was calculated by dividing the slopes and multiplying the results by 100.",
  "note": "Numbered stars: 1 amine (or outer) side, 2 acyl side, 3 side chain; on linkers, the order of the positions; unused ones are H or OH. Bridge positions count the residues as written; N and C are the ends. Square brackets hold non-standard residues; d marks the D form. Peptide text beside a SMILES is read from it. * marks the point of attachment. Nicotinoyl(6-OMe) = COc1ccc(C(=O)*)cn1; 2Thenoyl(5-Cl) = O=C(c1ccc(Cl)s1)*; Phenoxyacetyl = O=C(COc1ccccc1)*; Cysteamide = C(CS[*:3])N[*:1]; 4Amb = NCc1ccc(C(=O)O)cc1; Orn = NCCC[CH](N)C(=O)O; Bz = O=C(c1ccccc1)*; Mpa = O=C(O)CCS",
  "data": [
    {"smiles": "O=C(COc1ccccc1)NCCC[C@@H]1NC(=O)CCSSCCNC(=O)[C@H](Cc2cnc[nH]2)NC(=O)c2cccc(c2)CNC1=O", "note": "[D2-B5-H/13]", "values": [
      {"measurement": "percent residual thrombin activity", "value": 105.187, "unit": "%"}
    ]},
    {"smiles": "O=C1CCSSCCNC(=O)[C@H](CCCCNC(=O)c2ccccc2)NC(=O)[C@@H](Cc2ccc(O)cc2)NC(=O)c2ccc(cc2)CN1", "note": "[B3-y-D1/1] ([Mpa][4Amb][dY]K(Bz)-Cysteamide; disulfide 1-C)", "values": [
      {"measurement": "percent residual thrombin activity", "value": 107.146, "unit": "%"}
    ]},
    {"smiles": "O=C1CCNC(=O)[C@@H](Cc2ccc(O)cc2)NC(=O)[C@H](CNC(=O)c2ccc(Cl)s2)NC(=O)CCSSCCN1", "note": "[X D3 y B2]", "values": [
      {"measurement": "% thrombin activity, Original screen", "value": 78.6, "unit": "%"},
      {"measurement": "% thrombin activity, Repeat screen", "value": 75.2, "unit": "%"}
    ]},
    {"smiles": "O=C1CCSSCCNC(=O)[C@H](CNC(=O)c2ccc(Cl)s2)NC(=O)[C@H](Cc2ccccc2)NC(=O)CCN1", "note": "[X B2 F D3]", "values": [
      {"measurement": "% thrombin activity, Original screen", "value": 34.0, "unit": "%"},
      {"measurement": "% thrombin activity, Repeat screen", "value": 33.5, "unit": "%"}
    ]},
    {"smiles": "O=C1CNC(=O)[C@H](Cc2ccc(O)cc2)NC(=O)[C@@H]2CCCN2C(=O)[C@@H](NC(=O)c2ccc(Cl)s2)CSSCCN1", "note": "[C B1 Y G] ({2Thenoyl(5-Cl)}-CPYG-Cysteamide; disulfide 1-C)", "values": [
      {"measurement": "% thrombin activity, Original screen", "value": 98.5, "unit": "%"},
      {"measurement": "% thrombin activity, Repeat screen", "value": 102.3, "unit": "%"}
    ]},
    {"smiles": "O=C1CCSSCCNC(=O)C2CCCN2C(=O)C(CCCNC(=O)c2ccc(Cl)s2)NC(=O)C(Cc2c[nH]cn2)N1", "note": "(centres unmarked) [X H D2 B1] ([Mpa]H[Orn](2Thenoyl(5-Cl))P-Cysteamide; disulfide 1-C; configuration not given here)", "values": [
      {"measurement": "% thrombin activity, Original screen", "value": 95.8, "unit": "%"},
      {"measurement": "% thrombin activity, Repeat screen", "value": 95.8, "unit": "%"}
    ]},
    {"smiles": "CC(C)[C@H]1NC(=O)[C@H](CCCCNC(=O)COc2ccccc2)NC(=O)[C@@H]2CCCN2C(=O)CCSSCCNC1=O", "note": "[B1-D1-v/13] ([Mpa]PK(Phenoxyacetyl)[dV]-Cysteamide; disulfide 1-C)", "values": [
      {"measurement": "percent residual thrombin activity", "value": 123.844, "unit": "%"}
    ]},
    {"smiles": "COc1ccc(C(=O)NCCCC[C@@H]2NC(=O)[C@H](C(C)C)NC(=O)c3ccc(cc3)CNC(=O)CCSSCCNC2=O)cn1", "note": "[B3-V-D1/10]", "values": [
      {"measurement": "percent residual thrombin activity", "value": 106.658, "unit": "%"}
    ]},
    {"smiles": "CC(C)[C@H]1NC(=O)c2cccc(c2)CNC(=O)[C@H](CCCNC(=O)c2ccc(Cl)s2)NC(=O)CCSSCCNC1=O", "note": "[D2-B5-v/14]", "values": [
      {"measurement": "percent residual thrombin activity", "value": 98.5757, "unit": "%"}
    ]},
    {"smiles": "O=C1CCSSCCNC(=O)C2CC(NC(=O)c3ccc(Cl)s3)CN2C(=O)CCNC(=O)C(CO)N1", "note": "(centres unmarked) [X S B2 D5]", "values": [
      {"measurement": "% thrombin activity, Original screen", "value": 96.6, "unit": "%"},
      {"measurement": "% thrombin activity, Repeat screen", "value": 90.6, "unit": "%"}
    ]},
    {"smiles": "CC(C)C[C@@H]1NC(=O)CCNC(=O)CCSSCCNC(=O)[C@H](CCCNC(=O)c2c[nH]c(=O)[nH]c2=O)NC1=O", "note": "[B2-L-D2/11]", "values": [
      {"measurement": "percent residual thrombin activity", "value": 112.783, "unit": "%"}
    ]},
    {"smiles": "O=C(NCCCC[C@@H]1NC(=O)[C@@H](Cc2c[nH]c3ccccc23)NC(=O)[C@H]2CCCN(C2)C(=O)CCSSCCNC1=O)c1ccc(Cl)s1", "note": "[B4-W-D1/14]", "values": [
      {"measurement": "percent residual thrombin activity", "value": 84.8525, "unit": "%"}
    ]},
    {"smiles": "Cc1nnsc1C(=O)NCCC[C@@H]1NC(=O)CCSSCCNC(=O)[C@H](Cc2c[nH]cn2)NC(=O)c2cccc(c2)CNC1=O", "note": "[D2-B5-H/15]", "values": [
      {"measurement": "percent residual thrombin activity", "value": 105.304, "unit": "%"}
    ]},
    {"smiles": "O=C1CCSSCCNC(=O)[C@H](Cc2ccccc2)NC(=O)[C@H](CNC(=O)c2ccc(Cl)s2)NC(=O)C2(CC2)CN1", "note": "[X B6 D3 F]", "values": [
      {"measurement": "% thrombin activity, Original screen", "value": 70.7, "unit": "%"},
      {"measurement": "% thrombin activity, Repeat screen", "value": 68.6, "unit": "%"}
    ]},
    {"smiles": "CC(C)[C@H]1NC(=O)[C@H](CCCCNC(=O)c2ccccc2)NC(=O)[C@@H]2CCCN2C(=O)CCSSCCNC1=O", "note": "[B1-D1-v/1] ([Mpa]PK(Bz)[dV]-Cysteamide; disulfide 1-C)", "values": [
      {"measurement": "percent residual thrombin activity", "value": 107.218, "unit": "%"}
    ]},
    {"smiles": "CC(C)CC1NC(=O)C(CCCNC(=O)c2ccc(Cl)s2)NC(=O)C2(CC2)CNC(=O)CCSSCCNC1=O", "note": "(centres unmarked) [X B6 D2 L]", "values": [
      {"measurement": "% thrombin activity, Original screen", "value": 107.3, "unit": "%"},
      {"measurement": "% thrombin activity, Repeat screen", "value": 102.8, "unit": "%"}
    ]},
    {"smiles": "COc1ccc(C(=O)NCCCC[C@@H]2NC(=O)[C@H](C(C)C)NC(=O)CCSSCCNC(=O)[C@@H]3CCCN3C2=O)cn1", "note": "[V-D1-B1/10] ([Mpa]VK(Nicotinoyl(6-OMe))P-Cysteamide; disulfide 1-C)", "values": [
      {"measurement": "percent residual thrombin activity", "value": 107.385, "unit": "%"}
    ]},
    {"smiles": "Cc1nnsc1C(=O)NCCC[C@@H]1NC(=O)CCSSCCNC(=O)[C@H](Cc2ccc(O)cc2)NC(=O)c2cccc(c2)CNC1=O", "note": "[D2-B5-Y/15]", "values": [
      {"measurement": "percent residual thrombin activity", "value": 91.9104, "unit": "%"}
    ]},
    {"smiles": "CC(C)CC(=O)NCCC[C@@H]1NC(=O)CCNC(=O)[C@H](Cc2cnc[nH]2)NC(=O)CCSSCCNC1=O", "note": "[H-B2-D2/8]", "values": [
      {"measurement": "percent residual thrombin activity", "value": 108.958, "unit": "%"}
    ]},
    {"smiles": "O=C1CCNC(=O)[C@@H](Cc2c[nH]c3ccccc23)NC(=O)[C@@H](CNC(=O)c2ccc(Cl)s2)NC(=O)CCSSCCN1", "note": "[X D4 w B2]", "values": [
      {"measurement": "% thrombin activity, Original screen", "value": 90.8, "unit": "%"},
      {"measurement": "% thrombin activity, Repeat screen", "value": 96.7, "unit": "%"}
    ]},
    {"smiles": "NCCCC[C@@H]1NC(=O)C2(CC2)CNC(=O)CCSSCCNC(=O)[C@H](CCC(N)=O)NC1=O", "note": "[B6-D1-Q/-]", "values": [
      {"measurement": "percent residual thrombin activity", "value": 103.82, "unit": "%"}
    ]}
  ]
}
